{"source": "patent US8206756B2", "about": "“Herbal composition for inflammatory disorders” (Piramal Life Sciences Limited, priority 2005, dated 2012)", "key": {"[1]": {"system": "IL-8", "test": "LPS-stimulated IL-8 release in hPBMCs (ELISA)", "assay_type": "cell-based", "conditions": "Homo sapiens; LPS-stimulated hPBMC", "description": "Primary screening—Human peripheral blood mononuclear cells (hPBMCs). TNF-α production by lipopolysaccharides (LPS) in hPBMCs was measured according to the method described by Jansky, L. et al (Physiol. Res. 52: 593-598, (2003)). Blood was collected from healthy donors into Potassium EDTA vacutainer tubes (BD vacutainer). The PBMCs were isolated using gradient centrifugation in Histopaque-1077 solution (Sigma). Isolated PBMCs were suspended in RPMI 1640 culture medium (Gibco BRL, Pasley, UK) containing 10% fetal bovine serum (FBS) (Hyclone, Utah, USA), 100 U/ml penicillin (Sigma Chemical Co. St Louis, Mo.) and 100 μg/ml streptomycin (Sigma Chemical Co. St Louis, Mo.). The cell concentration was adjusted to 1×10^6 cells/ml. The viability as determined by trypan blue dye exclusion was uniformly ≧98%. […] The % inhibition was recorded. Percent cytotoxicity of the test samples compared to control was evaluated.\nThe effect of the plant extract on the proinflammatory cytokines: TNF-α, interleukin-1β (IL-1β), interleukin-6 (IL-6) and interleukin-8 (IL-8) was measured using the supernatants generated in the primary screening assay. […]\nThe effect of the Compound 1, on the proinflammatory cytokines: TNF-α interleukin-1β (IL-1β), interleukin-6 (IL-6) and interleukin-8 (IL-8) was measured using the supernatants generated in the primary screening assay. […]"}, "[2]": {"system": "IL-8", "test": "IL-8 production by synovial cells from a RA patient", "assay_type": "cell-based", "conditions": "Homo sapiens, Synovial cell, 10 hours", "description": "Cytokine production by synovial cells obtained from a rheumatoid arthritis (RA) patient undergoing knee replacement surgery was measured according to the method described by Brennan, F. M. et al (The Lancet. July 29: 244-247, (1989)). The synovial membrane tissue was digested in DMEM (Gibco) containing 10% FBS, 100 U/ml penicillin and 100 μg/ml streptomycin, 4 mg/ml collagenase type I (Worthington), 1.5 μg/ml Dnase type I (Sigma) and 15 U/ml heparin and incubated at 37° C. for 3 hours. After incubation, the digested tissue was filtered through a 70-μm membrane and the cells washed 3 times in complete medium (DMEM with 10% FBS). The synovial cells were cultured at 1×10^6 cells/ml in presence/absence of the test sample for 10 hours. The supernatants were harvested by centrifugation and levels of the cytokines (TNF-α, IL-1β, IL-6, IL-8) measured by ELISA. To assess the cytotoxic effect of the plant extracts, the cellular viability test was performed using MTS reagent. The 50% inhibitory concentration (IC50) values were calculated by a nonlinear regression method using GraphPad software (Prism 3.03).\nEffect on proinflammatory cytokines produced by synovial cells obtained from a RA patient was studied for compound 1 as described by procedure of example 8."}}}
{"smiles": "C=C1C(=O)OC2C3=C(C)CCCC3(C)CCC12O", "note": "(centres unmarked) [Compound 1, 3a-hydroxy-5a,9-dimethyl-3-methylene-3a,4,5,5a,6,7,8,9b-octahydro-3H-naphtho[1,2-b]furan-2-one]", "values": [{"measurement": "IC50", "setting": "[1]", "value": 8.9, "unit": "µM"}, {"measurement": "IC50", "setting": "[2]", "value": 10.9, "unit": "µM"}]}
